Results from publication PMC7070320, “Unsymmetrically Substituted Dibenzo[b,f][1,5]-diazocine-6,12(5H,11H)dione—A Convenient Scaffold for Bioactive Molecule Design” (Molecules, 2020).
Where two headings read alike, the source gives them in different places.

Columns and labels:
HeLa [1] = test: Cytotoxicity assay (Alamar Blue), HeLa cells; type: cell-based; conditions: Homo sapiens, read-out: IC50 based on the survival of cells
Protocol: (§1) Following cell lines: HeLa, U87, HEK293, EUFA30 were cultured in DMEM medium (Life Technology, Carlsbad, CA, USA) with 10% fetal bovine serum (Thermo Fisher Scientific, Waltham, MA, USA) and 0.1% antibiotics (penicillin, streptomycin, Life Technology, Carlsbad, CA, USA). Cells were grown in atmosphere of 5 and 95% CO2 and air, respectively, at 37 °C.
(§2) Exponentially growing cells at the density of 2 × 10^3 cells/well were seeded onto a 96-well plate, cultured for 18 h, and treated with newly synthesized compounds at concentrations 1–200 µM, or with DMSO as a control, for 24 or 48 h. Alamar Blue (Thermo Fisher Scientific, Waltham, MA, USA) was added accordingly to manufacturer protocol. After 4 h, light emission at 590 nm was measured with excitation at 560 nm using a scanning multiwell spectrophotometer (DTX 880, Beckman Coulter, Brea, CA, USA). The experiments were repeated at least three times with three replicates for each inhibitor concentration. After background subtraction, inhibition rates, IC50, were calculated as the component concentration inhibiting cell growth by 50%. All the calculations were performed using Origin 9.0 software.

[2] = test system: two normal (HEK293, EUFA30) and two cancerous (HeLa, U87) cell lines; test: Cytotoxicity assay (Alamar Blue), statements over all four cell lines; type: cell-based, human; conditions: concentrations tested: 1–200 µM
Protocol: as §1, §2

EUFA30 = test: Cytotoxicity assay (Alamar Blue), EUFA30 cells; type: cell-based; conditions: Homo sapiens, read-out: IC50 based on the survival of cells
Protocol: as §1, §2

HEK293 [3] = test: Cytotoxicity assay (Alamar Blue), HEK293 cells; type: cell-based, human; conditions: read-out: IC50 based on the survival of cells
Protocol: as §1, §2

U87 [4] = test: Cytotoxicity assay (Alamar Blue), U87 cells; type: cell-based, human; conditions: read-out: IC50 based on the survival of cells
Protocol: as §1, §2

HEK293 [5] = test: Flow cytometry apoptosis detection (Annexin V-FITC / propidium iodide), HEK293; type: cell-based, human; conditions: HEK293, 200 µM; for cells in necrosis: control cells 20%; for cells in early apoptosis: control cells 1.3%
Protocol: as §1
(§3) The apoptosis detection kit (Annexin V-FITC BD Biosciences, Franklin Lakes, NJ, USA) was used to detect apoptosis by flow cytometry. Cells were seeded in 6-well plates at concentration of 5 × 10^5 cells/well, cultured for 18 h, and tested compound was applied for indicated time. Afterwards, cells were washed with PBS, resuspended in binding buffer at concentration of 2 × 10^6 cells/mL. The anti-Annexin V FITC-conjugated antibody and propidium iodide were added to 100 µl aliquots. Then, mixtures were incubated for 15 min at room temperature, supplemented with binding buffer to 500 µl and processed by BD FACSCalibur (BD Biosciences, Franklin Lakes, NJ, USA). Data were analyzed in Flowing Software version 2.5.1 (Flowing Software, http://www.uskonaskel.fi/flowingsoftware).

U87 [6] = test: Flow cytometry apoptosis detection (Annexin V-FITC / propidium iodide), U87; type: cell-based, human; conditions: U87, 200 µM; for cells in late apoptosis: control 1.6%; for cells in necrotic phase: 48 h, control 17%; for cells in necrosis: control 8.6%
Protocol: as §1, §3

HeLa [7] = test: Flow cytometry apoptosis detection (Annexin V-FITC / propidium iodide), HeLa; type: cell-based, human; conditions: 200 µM
Protocol: as §1, §3

[8] = Homo sapiens, HEK293, 24 h, HEK293, 24 h of treatment
[9] = Homo sapiens, U-87 MG, 24 h, U87, 24 h of treatment
[10] = Homo sapiens, U-87 MG, 48 h, U87, 48 h of treatment
[11] = Homo sapiens, HEK293, 48 h, HEK293, 48 h of treatment

## O=C1Nc2ccc(Br)cc2C(=O)Nc2ccccc21 [Compound 10b, 2-Bromodibenzo[b,f][1,5]diazocine-6,12(5H,11H)-dione]
HeLa [1]; 24 h of treatment
  IC50: 97.3 ± 13.7 µM
[2]
  cytotoxic effect (in words): showed a cytotoxic effect while maintaining the selectivity of action
other
  melting point: 283 to 284 °C

## COc1cc2c(cc1OC)C(=O)Nc1ccc(Br)cc1C(=O)N2 [Compound 10c, 8-Bromo-2,3-dimethoxydibenzo[b,f][1,5]diazocine-6,12(5H,11H)-dione]
[2]
  cytotoxic effect (in words): no cytotoxic effect in the concentration range tested
other
  melting point: 195 to 196 °C

## O=C1Nc2ccc(Cl)cc2C(=O)Nc2ccccc21 [Compound 10a, 2-Chlorodibenzo[b,f][1,5]diazocine-6,12(5H,11H)-dione]
[2]
  cytotoxic effect (in words): no cytotoxic effect in the concentration range tested
other
  melting point: 275 to 276 °C

## COc1cc2c(cc1OC)C(=O)N(C)c1ccccc1C(=O)N2 [Compound 10g, 2,3-Dimethoxy-11-methyldibenzo[b,f][1,5]diazocine-6,12(5H,11H)-dione]
other
  melting point: 271 to 272 °C

## CC(=O)N1C(=O)c2ccccc2N(C)C(=O)c2ccccc21 [Compound 10o, 5-acetyl-11-methyldibenzo[b,f][1,5]diazocine-6,12(5H,11H)-dione]
other
  melting point: 193 to 194 °C

## CN1C(=O)c2ccccc2NC(=O)c2ccccc21 [Compound 10d, 5-Methyldibenzo[b,f][1,5]diazocine-6,12(5H,11H)-dione]
other
  melting point: 258 to 259 °C

## CN1C(=O)c2cc3ccccc3cc2NC(=O)c2cc(Cl)ccc21 [Compound 10h, 2-Chloro-5-methylbenzo[b]naphtho[2,3-f][1,5]diazocine-6,14(5H,13H)-dione]
EUFA30; Eufa30, 24 h of treatment
  IC50: 170 ± 21.1 µM
EUFA30; Eufa30, 48 h of treatment
  IC50: 200 ± 13.9 µM
HEK293 [3]; [8]
  IC50: > 200 µM
HeLa [1]; 24 h of treatment
  IC50: 107 ± 10 µM
HeLa [1]; 48 h of treatment
  IC50: 108 ± 8.6 µM
U87 [4]; [9]
  IC50: 149 ± 9 µM
U87 [4]; [10]
  IC50: 182 ± 5.6 µM
[2]
  cytotoxic effect (in words): showed a cytotoxic effect while maintaining the selectivity of action
HEK293 [5]; 24 h, control cells 0.4%
  cells in late apoptosis: 3%
HEK293 [5]; 24 h
  cells in necrosis: 32%
HEK293 [5]; 48 h, control cells 0.5%
  cells in late apoptosis: 3.2%
HEK293 [5]; 48 h
  cells in early apoptosis: 3.8%
U87 [6]; 24 h, control 1.2%
  cells in early apoptosis: 4.1%
U87 [6]; 24 h
  cells in late apoptosis: 6.9%
U87 [6]
  cells in necrotic phase: 36.2%
other
  melting point: 270 to 271 °C

## CN1C(=O)c2cc([N+](=O)[O-])ccc2NC(=O)c2ccccc21 [Compound 10f, 11-Methyl-2-nitrodibenzo[b,f][1,5]diazocine-6,12(5H,11H)-dione]
HeLa [1]; 24 h of treatment
  IC50: 206 ± 12.8 µM
[2]
  cytotoxic effect (in words): showed a cytotoxic effect while maintaining the selectivity of action
HEK293 [5]; 24 h, control cells 0.4%
  cells in late apoptosis: 0.5%
HEK293 [5]; 24 h
  cells in necrosis: 39%
HEK293 [5]; 48 h, control cells 0.5%
  cells in late apoptosis: 3%
HEK293 [5]; 48 h
  cells in early apoptosis: 6.6%
other
  melting point: 225 to 226 °C

## COc1cc2c(cc1OC)C(=S)Nc1ccc(Br)cc1C(=S)N2 [Compound 10p, 8-bromo-2,3-dimethoxydibenzo[b,f][1,5]diazocine-6,12(5H,11H)-dithione]
EUFA30; Eufa30, 24 h of treatment
  IC50: > 200 µM
EUFA30; Eufa30, 48 h of treatment
  IC50: 158 ± 9.6 µM
HEK293 [3]; HEK293, 24 h of treatment
  IC50: 202 ± 7.9 µM
HEK293 [3]; [8]
  IC50: > 200 µM
HEK293 [3]; [11]
  IC50: 145 ± 8.5 µM
HeLa [1]; 24 h of treatment
  IC50: 115 ± 4.5 µM
HeLa [1]; 48 h of treatment
  IC50: 204 ± 6.5 µM
U87 [4]; [9]
  IC50: 170 µM
U87 [4]; U87, 24 h of treatment
  IC50: 172 ± 10 µM
[2]
  cytotoxic effect (in words): showed a cytotoxic effect while maintaining the selectivity of action
HeLa [7]; 24 h, non-treated control 21.1%
  percentage of necrotic cells: 34.5%
HeLa [7]; 48 h, control cells 22.1%
  percentage of necrotic cells: 53.4%
U87 [6]; 24 h
  cells in necrosis: 14%
U87 [6]
  cells in necrotic phase: 46.6%
other
  melting point: 186 to 187 °C (dec.)

## CN1C(=O)c2cc(Br)ccc2N(Cc2cccc3ccccc23)C(=O)c2ccccc21 [Compound 10k, 2-Bromo-11-methyl-5-(naphthalen-1-ylmethyl)dibenzo[b,f][1,5]diazocine-6,12(5H,11H)-dione]
EUFA30; Eufa30, 24 h of treatment
  IC50: 87.6 ± 8.1 µM
EUFA30; Eufa30, 48 h of treatment
  IC50: 74.4 ± 6.7 µM
HEK293 [3]; [8]
  IC50: 119 ± 7.1 µM
HEK293 [3]; [11]
  IC50: 138 ± 12 µM
HeLa [1]; 24 h of treatment
  IC50: 75.3 ± 1.6 µM
HeLa [1]; 48 h of treatment
  IC50: 124 ± 5.4 µM
U87 [4]; [9]
  IC50: 75.4 ± 8.7 µM
U87 [4]; [10]
  IC50: 197 ± 9.4 µM
HEK293 [5]; 24 and 48 h
  changes in the apoptosis/necrosis phases in relation to control: did not observe any changes in the apoptosis/necrosis phases in relation to control
HeLa [7]; 24 and 48 h
  changes in the apoptosis/necrosis phases in relation to control: did not observe any changes in the apoptosis/necrosis phases in relation to control
U87 [6]; 24 and 48 h
  changes in the apoptosis/necrosis phases in relation to control: did not observe any changes in the apoptosis/necrosis phases in relation to control
other
  melting point: 255 to 256 °C

## CCOC(=O)CN1C(=O)c2ccccc2N(C)C(=O)c2ccccc21 [Compound 10n, ethyl 2-(11-methyl-6,12-dioxo-11,12-dihydrodibenzo[b,f][1,5]diazocin-5(6H)-yl)acetate]
other
  melting point: 125 to 126 °C

## O=C1Nc2ccccc2C(=O)N(Cc2ccccc2)c2ccccc21 [Compound 10i, 5-Benzyldibenzo[b,f][1,5]diazocine-6,12(5H,11H)-dione]
other
  melting point: 212 to 213 °C

## O=C1Nc2nccnc2C(=O)Nc2ccc(Cl)cc21 [Compound 10m, 8-Chloropyrazino[3,2-c][1,5]benzodiazocine-6,12(5H,11H)-dione]
other
  melting point: 346 to 347 °C

## O=C1Nc2ccccc2C(=O)N(Cc2ccc(Br)cc2)c2ccccc21 [Compound 10j, 5-(4-Bromobenzyl)dibenzo[b,f][1,5]diazocine-6,12(5H,11H)-dione]
HEK293 [3]; [11]
  IC50: 192 ± 12.2 µM
HeLa [1]; 24 h of treatment
  IC50: 138 ± 14.1 µM
HeLa [1]; 48 h of treatment
  IC50: 203 ± 4 µM
[2]
  cytotoxic effect (in words): showed a cytotoxic effect while maintaining the selectivity of action
HEK293 [5]; 24 h, control cells 0.4%
  cells in late apoptosis: 10%
HEK293 [5]; 24 h
  cells in necrosis: 22%
HEK293 [5]; 48 h, control cells 0.5%
  cells in late apoptosis: 4.4%
HEK293 [5]; 48 h
  cells in early apoptosis: 4%
U87 [6]; 24 h
  cells in late apoptosis: 5.2%
  cells in necrosis: 17.8%
U87 [6]
  cells in necrotic phase: 28.1%
other
  melting point: 222 to 223 °C

## CN1C(=O)c2cc(Br)ccc2NC(=O)c2ccccc21 [Compound 10e, 2-Bromo-11-methyldibenzo[b,f][1,5]diazocine-6,12(5H,11H)-dione]
HeLa [1]; 24 h of treatment
  IC50: > 200 µM
other
  melting point: 247 to 248 °C
